# Experimental data taken from US20220112309A1, “BISPECIFIC ANTIBODY AGAINST CD3 AND CD20 IN COMBINATION THERAPY FOR TREATING DIFFUSE LARGE B-CELL LYMPHOMA” (GENMAB A/S, priority 2020, published 2022).
# Experiments:
# SU-DHL-4 [1] = assay type: cell-based; conditions: SU-DHL-4 cells, 48 hours
# Protocol: (§1) Briefly, human Burkitt lymphoma (Raji) and DLBCL (SU-DHL-4) cell lines were used as target cells. Cells were cultured in culture medium (RPMI 1640 with HEPES and L-Glutamine supplemented with 10% heat-inactivated donor bovine serum with iron, and 1% [v/v] penicillin/streptomycin) to which 2 mM L-glutamine and 1 mM sodium pyruvate were added, at 37° C., 5% CO2. T cells, isolated from human healthy donor buffy coats (Sanquin) by negative selection using the RosetteSep™ Human T Cell Enrichment Cocktail (Stemcell Technologies), followed by density centrifugation over a Ficoll gradient, both according to the manufacturer's instructions, were used as effector cells. Isolated cells were washed twice in phosphate buffered saline (PBS) and counted using acridine orange/propidium iodide (AO/PI) viability staining solution (Nexcelom Bioscience) on a Cellometer® Auto 2000 Cell Viability Counter. […] B-cell viability and T-cell activation were measured by flow cytometry (count of CD22-positive cells; expression of the T-cell activation markers CD69, CD25, programmed cell death protein 1 (PD-1), and CD107 [lysosomal associated membrane protein 1; LAMP-1] on CD4+ and CD8+ T cells). Absolute cell numbers were determined by adding Accucheck Counting beads (100 μL/well) (Thermofisher) and calculated as follows:
# (§2) Correction factor=([bead count1+bead count2]/average bead countplate)
# (§3) Absolute cell number=[cell countsample/correction factor] • The percentage cytotoxicity was calculated as follows:
# (§4) % cytotoxicity=100−([absolute cell numbersample/absolute cell numberno antibody]×100%)
# Raji [2] = assay type: cell-based; conditions: 48 hours
# Protocol: as §1, §2, §3, §4
# Raji [3] = experiment: in vitro T-cell activation assay, T cells incubated with Raji cells; assay type: cell-based, human; conditions: Raji target cells, 48 hours
# Protocol: as §1, with “follows: […]” for “follows:”
# SU-DHL-4 [4] = experiment: in vitro T-cell activation assay, T cells incubated with SU-DHL-4 cells; assay type: cell-based, human; conditions: SU-DHL-4 target cells, 48 hours
# Protocol: as §1, with “follows: […]” for “follows:”
# R/R B-NHL = experiment: ongoing clinical trial of epcoritamab monotherapy (NCT03625037); assay type: in vivo
# Source text: Epcoritamab as monotherapy is currently in a clinical trial for the treatment of relapsed/refractory (R/R) B-NHL (ClinicalTrials.gov Identifier: NCT03625037).
# [5] = gemcitabine and/or oxaliplatin at EC30 concentrations, with or without epcoritamab
# [6] = epcoritamab alone 0.01 pg/mL-100 ng/mL
# [7] = epcoritamab 0.01 pg/mL-100 ng/mL, flow cytometry
# [8] = gemcitabine 1 nM, oxaliplatin 0.3 μM
Compound,cytotoxicity of B cells (SU-DHL-4 [1]; [5]),cytotoxicity of B cells (Raji [2]; [5]),T-cell-mediated cytotoxicity (decrease in the number of viable B cells) (SU-DHL-4 [1]; [6]),T-cell-mediated cytotoxicity (decrease in the number of viable B cells) (Raji [2]; [6]),"T-cell activation (upregulation of CD69, CD25, PD-1, and LAMP-1 expression) (Raji [3]; [7])","Epcoritamab-induced T-cell activation in the presence of gemcitabine, oxaliplatin, or the combination (Raji [3]; [8])","T-cell activation (upregulation of CD69, CD25, PD-1, and LAMP-1 expression) (SU-DHL-4 [4]; [7])","Epcoritamab-induced T-cell activation in the presence of gemcitabine, oxaliplatin, or the combination (SU-DHL-4 [4]; [8])","dose-limiting toxicities (R/R B-NHL; human, in vivo)","tolerated dose (R/R B-NHL; monotherapy, R/R B-NHL patients, preliminary data)"
"Nc1ccn(C2OC(CO)C(O)C2(F)F)c(=O)n1 (stereo not shown) [gemcitabine, 4-amino-1-[3,3-difluoro-4-hydroxy-5-(hydroxymethyl)oxolan-2-yl]-1,2-dihydropyrimidin-2-one, reference compound]",induced cytotoxicity of B cells,induced cytotoxicity of B cells,,,,,,,,
"epcoritamab: IgG1 bispecific CD3xCD20 antibody; heavy and light chain pairs of SEQ ID NOs: 24 and 25, and 26 and 27; CAS 2134641-34-0",,,concentration-dependent T-cell-mediated cytotoxicity,concentration-dependent T-cell-mediated cytotoxicity,concentration-dependent activation of both CD4+ (data not shown) and CD8+ T cells,not affected,concentration-dependent activation of both CD4+ (data not shown) and CD8+ T cells,not affected,no dose-limiting toxicities reported,"tolerated at doses up to at least 48 mg, including 60 mg"
